As a reminder, the IC50 is the concentration needed to halve the response being measured.

These results are taken from article PMC5397323 (Biopharmaceutics & drug disposition, 2017).

Data set [1] concerns the target T1, OATP2B1 (Homo sapiens, UniProt O94956).
T1 sequence (O94956 1-709): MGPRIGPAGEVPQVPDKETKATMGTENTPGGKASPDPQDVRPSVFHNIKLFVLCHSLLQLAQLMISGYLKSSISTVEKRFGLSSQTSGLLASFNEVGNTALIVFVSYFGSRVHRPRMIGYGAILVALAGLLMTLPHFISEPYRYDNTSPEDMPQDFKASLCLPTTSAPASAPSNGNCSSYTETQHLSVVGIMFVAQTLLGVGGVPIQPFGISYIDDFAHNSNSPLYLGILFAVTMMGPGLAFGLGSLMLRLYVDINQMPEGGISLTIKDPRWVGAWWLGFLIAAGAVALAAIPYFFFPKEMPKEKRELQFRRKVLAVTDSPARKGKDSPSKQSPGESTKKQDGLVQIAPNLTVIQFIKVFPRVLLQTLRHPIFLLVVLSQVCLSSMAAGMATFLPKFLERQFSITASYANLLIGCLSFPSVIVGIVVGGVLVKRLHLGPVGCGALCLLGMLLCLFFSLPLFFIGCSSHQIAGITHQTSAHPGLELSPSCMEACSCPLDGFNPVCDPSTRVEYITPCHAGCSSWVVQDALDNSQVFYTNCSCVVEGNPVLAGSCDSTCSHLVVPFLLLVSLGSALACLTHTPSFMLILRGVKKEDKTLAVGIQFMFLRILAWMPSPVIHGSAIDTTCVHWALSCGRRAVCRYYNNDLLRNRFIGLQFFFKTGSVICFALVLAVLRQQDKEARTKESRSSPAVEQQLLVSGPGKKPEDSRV
The data set can be described thus: Inhibition of OATP2B1-mediated estrone 3-sulfate uptake in MDCKII-OATP2B1 cells. Format: cell-based. The conditions noted are these: 0 to 316 μM.

Data set [2] addresses T1, OATP2B1. The note with it: OATP2B1-overexpressing Xenopus laevis oocytes; cited from earlier work.

`COc1ccc([C@@H]2CC(=O)c3c(O)cc(O[C@@H]4O[C@H](CO[C@@H]5O[C@@H](C)[C@H](O)[C@@H](O)[C@H]5O)[C@@H](O)[C@H](O)[C@H]4O)cc3O2)cc1O` [Hesperidin, hesperidin]: the “inhibition at the concentrations tested” value against OATP2B1 [1] is on record as “no inhibition”. The IC50 on OATP2B1 [2] was 1.92 µM.
